Test in all cases: DTP human tumour cell line panel, 48 h
Experiment [1] relates to K-562 leukemia.
Experiment [2] concerns MCF7 breast.
Experiment [3] deals with MDA-MB-231 breast.
For experiment [4], the system named is OVCAR-8 ovarian.
The subject of experiment [5] is SF-268 CNS.
Experiment [6] deals with SK-MEL-28 melanoma.
Experiment [7] has as its system CAKI-1 renal.
Experiment [8] has as its system EKVX NSCLC.
Experiment [9] relates to MALME-3M melanoma.
The subject of experiment [10] is SF-295 CNS.

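Exposure lasted 48 hours, with cells grown in 96-well plates and compounds tested at five concentrations. GI50 is the concentration that inhibits growth by half. TGI: concentration producing complete growth inhibition.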

The GI50 is the concentration giving 50% growth inhibition. Broadly, the TGI is the concentration at which net growth stops. High values mean lower sensitivity of the cells, low ones greater sensitivity of the cells. As to `O=C1NC(=O)C(=C/C=C/c2ccccc2)C(=O)N1`, the GI50 in experiment [1] was 4.94 µM; in experiment [2] it was 2970 nM; in experiment [3], 3730 nM; in experiment [4], 3.01 µM; in experiment [5], 3200 nM; in [6] it was 1910 nM. Further, the TGI was found to be 70 µM in experiment [1]; 20.1 µM in [2]; 16 µM in experiment [3]; 17.8 µM in [4]; 10.3 µM in experiment [5]; 3.59 µM in experiment [6].
For `CC1C[C@H](C)CC(C(O)CC2CC(=O)N(Cc3ccccc3)C(=O)C2)C1O` (some centres undefined), the TGI in experiment [7], in experiment [8], in experiment [1], in experiment [9], in experiment [4] and in [5] was > 100 µM throughout. Besides, the TGI in experiment [10] and in experiment [6] was > 100 µM in each case.
As for `O=C(c1ccccc1)N1C2CCC1C(C(F)(F)F)=C2C(F)(F)F`, the TGI in [7], in experiment [8], in [1], in experiment [9], in [4] and in experiment [5] was > 100 µM throughout. Also, in experiment [10], the TGI was > 100 µM.
On to `C=C(C)[C@@H]1CC[C@]2(C(=O)O)CC[C@]3(C)[C@H](CC[C@@H]4[C@@]5(C)C[C@@H](CC#Cc6ccc(C(F)(F)F)cc6)[C@H](O)C(C)(C)[C@@H]5CC[C@]43C)[C@@H]12`, for which the GI50 in experiment [7] is 2630 nM; in experiment [8], 3.82 µM; in experiment [1] it was 1.93 µM; in [2], 2890 nM; in experiment [4], 3.55 µM. The TGI in experiment [7], in [8], in experiment [1], in [2] and in [4] was > 100 µM each time.
For the molecule `COc1c(C(=O)c2ccc([N+](=O)[O-])cc2)cc(C(C)(C)C)cc1C(C)(C)C`, the TGI in experiment [7], in experiment [8], in [1], in [9], in experiment [4] and in experiment [5] was > 100 µM throughout. In addition, the TGI in experiment [10] was > 100 µM; in [6], 72.8 µM.
For `CC(=O)OC1CCCn2c1nc1c2C(=O)C(C)=C(N2CC2)C1=O` (centres undefined), the TGI in experiment [7] was 0.687 µM; in experiment [8], 1.9 µM; in experiment [1], > 35.2 µM; in experiment [9] it was 0.47 µM; in [4], 1.37 µM; in experiment [5], 1.05 µM. Further, the TGI in [10] worked out at 0.665 µM; in experiment [6], 1.14 µM.
As for `O=C1c2nsnc2C(=O)c2c(F)c(F)c(F)c(F)c21`, the GI50 in experiment [1] is 0.238 µM; in experiment [2] it was 398 nM; in experiment [3], 1380 nM; in experiment [4] it was 2.8 µM; in [5], 1600 nM; in [10], 1400 nM. Moreover, in experiment [6], the GI50 was 594 nM. The TGI in experiment [1] was found to be 1.01 µM; in experiment [2] it was 2.19 µM; in [3], 2.78 µM; in experiment [4], 72.7 µM; in [5] it was 3.17 µM; in experiment [10], 2.99 µM. Besides, in experiment [6], the TGI was 1.76 µM.
`CC1SC2=NC3=C(c4ccccc4C3=O)C(c3ccc(Cl)cc3)N2C1=O` (centres undefined): the TGI in experiment [7], in [8], in experiment [1], in experiment [9], in experiment [4] and in experiment [5] was > 100 µM each time. The TGI in [10] and in experiment [6] was > 100 µM throughout.
On to `CNCc1cc(OC)ccc1-c1ccc(OC)c(OC)c1OC`, for which the TGI in [7], in [8], in experiment [1], in experiment [9], in experiment [4] and in [5] was > 100 µM throughout. Further, the TGI in experiment [10] and in experiment [6] was > 100 µM throughout.
Take `CC1CC(=O)Nc2ccccc2N1C(=O)CN1CCC(CCCCN(C)C)CC1` (centres undefined): the TGI in experiment [7], in experiment [8], in [1], in [9], in [4] and in [5] was > 100 µM each time. Moreover, the TGI in experiment [10] and in [6] was > 100 µM each time.
Turning to `CC(=O)c1ccc(OCC(O)CO)cc1` (centres undefined), the TGI in experiment [7], in [8], in experiment [1], in [9], in experiment [4] and in [5] was > 100 µM in each case. Further, the TGI in [10] and in [6] was > 100 µM throughout.
With `CC[P+](C)(C)c1ccccc1`, the TGI in [7], in experiment [8], in experiment [1], in experiment [9], in experiment [4] and in experiment [5] was > 100 µM throughout. In addition, the TGI in experiment [10] and in [6] was > 100 µM in each case.
For `CCOC(=O)CSC(=O)NCCCl`, the TGI in experiment [7], in experiment [8], in [1], in experiment [9], in experiment [4] and in experiment [5] was > 100 µM throughout. Besides, the TGI in [10] and in experiment [6] was > 100 µM throughout. Besides, in experiment [1], the GI50 was 29 µM.
Take `CC1=NOC(=O)/C1=C/c1cccc2ccccc12`: the total growth inhibition concentration (TGI) in experiment [7], in [8], in experiment [1], in experiment [9], in experiment [4] and in [5] was > 100 µM throughout. Moreover, the TGI in [10] and in [6] was > 100 µM in each case.
